Experimental data from patent US20150010928A1, “MEANS AND METHODS FOR ASSESSING AN ENDOCRINE DISEASE OR DISORDER” (priority 2012, published 2015).
Marks after values point to notes of the source that are not given here.

System: male rats
Assay: Plasma metabolite profiling (GC-MS, LC-MS, SPE-LC-MS) in male rats dosed once daily over 28 days (OECD 407)
Format: in vivo, rat
Details: high dose; for Glycochenodeoxycholic acid / Mannose: Table 15c; for 3,4-Dihydroxyphenylacetic acid (DOPAC) / 18-Hydroxy-11-deoxycorticosterone / Glycerol phosphate, lipid fraction / Homovanillic acid (HVA) / Kynurenic acid / Lysophosphatidylcholine (C18:1) / Lysophosphatidylethanolamine (C22:5) / Phosphate, lipid fraction / Phosphatidylcholine (C18:0,C18:1) / Sphingomyelin (d18:1, C16:0) / Sphingomyelin (d18:1,C23:0) / Sphingomyelin (d18:1,C24:0) / Sphingomyelin (d18:2,C18:0) / TAG No 02 / Taurocholic acid / myo-Inositol, lipid fraction: Table 15d; for Alanine, ratio versus control / Androstenedione, ratio versus control / Glycine, ratio versus control / Heptadecanoic acid (C17:0), ratio versus control / Testosterone, ratio versus control / Threonine, ratio versus control / Uric acid, ratio versus control / alpha-Tocopherol, ratio versus control / Cholesterol, ratio versus control: male rats, plasma
Method in brief: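 Polar and lipid fractions profiled by GC-MS and LC-MS/MRM, steroids by online SPE-LC-MS; pool-normalized data compared to controls by Welch test as treatment ratios and p-values.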

## C[C@@H]1CC2=CC(=O)CC[C@@H]2[C@H]2CC[C@@]3(C)[C@@H](CC[C@]3(C)O)[C@@H]21 [Mibolerone]
m7, male rats
  Glycochenodeoxycholic acid: 1.31
  Mannose: 1.41 *
  3,4-Dihydroxyphenylacetic acid (DOPAC): 0.83 *
  18-Hydroxy-11-deoxycorticosterone: 0.83 *
  Glycerol phosphate, lipid fraction: 0.08 *
  Homovanillic acid (HVA): 0.5 *
  Kynurenic acid: 0.73 *
  Lysophosphatidylcholine (C18:1): 0.53 *
  Lysophosphatidylethanolamine (C22:5): 0.54 *
  Phosphate, lipid fraction: 0.32 *
  Phosphatidylcholine (C18:0,C18:1): 0.19 *
  Sphingomyelin (d18:1, C16:0): 0.12 *
  Sphingomyelin (d18:1,C23:0): 0.07 *
  Sphingomyelin (d18:1,C24:0): 0.1 *
  Sphingomyelin (d18:2,C18:0): 0.17 *
  TAG No 02: 0.34 *
  Taurocholic acid: 1.11
  myo-Inositol, lipid fraction: 0.08 *
m14, male rats
  Glycochenodeoxycholic acid: 2.14 *
  Mannose: 1.08 *
  3,4-Dihydroxyphenylacetic acid (DOPAC): 0.96
  18-Hydroxy-11-deoxycorticosterone: 0.93
  Glycerol phosphate, lipid fraction: 0.35 *
  Homovanillic acid (HVA): 0.69 *
  Kynurenic acid: 0.5
  Lysophosphatidylcholine (C18:1): 0.81 *
  Lysophosphatidylethanolamine (C22:5): 0.87
  Phosphate, lipid fraction: 0.62 *
  Phosphatidylcholine (C18:0,C18:1): 0.61 *
  Sphingomyelin (d18:1, C16:0): 0.37 *
  Sphingomyelin (d18:1,C23:0): 0.53 *
  Sphingomyelin (d18:1,C24:0): 0.63 *
  Sphingomyelin (d18:2,C18:0): 0.3 *
  TAG No 02: 0.24 *
  Taurocholic acid: 0.62 *
  myo-Inositol, lipid fraction: 0.29 *
m28, male rats
  Glycochenodeoxycholic acid: 5.73 *
  Mannose: 1.07 *
  3,4-Dihydroxyphenylacetic acid (DOPAC): 0.79 *
  18-Hydroxy-11-deoxycorticosterone: 0.63 *
  Glycerol phosphate, lipid fraction: 0.7
  Homovanillic acid (HVA): 0.6 *
  Kynurenic acid: 0.54 *
  Lysophosphatidylcholine (C18:1): 0.91 *
  Lysophosphatidylethanolamine (C22:5): 0.85 *
  Phosphate, lipid fraction: 0.81 *
  Phosphatidylcholine (C18:0,C18:1): 1.1
  Sphingomyelin (d18:1, C16:0): 0.51 *
  Sphingomyelin (d18:1,C23:0): 1.09
  Sphingomyelin (d18:1,C24:0): 1.01
  Sphingomyelin (d18:2,C18:0): 0.33 *
  TAG No 02: 0.23 *
  Taurocholic acid: 0.75 *
  myo-Inositol, lipid fraction: 0.5 *
Day 7
  Alanine, ratio versus control: 0.72 *
  Androstenedione, ratio versus control: 0.05 *
  Glycine, ratio versus control: 0.86 *
  Heptadecanoic acid (C17:0), ratio versus control: 0.37 *
  Testosterone, ratio versus control: 0.07 *
  Threonine, ratio versus control: 0.76 *
  Uric acid, ratio versus control: 0.66 *
  alpha-Tocopherol, ratio versus control: 0.07 *
Day 14
  Alanine, ratio versus control: 0.93 *
  Androstenedione, ratio versus control: 0.96^
  Cholesterol, ratio versus control: 0.27 *
  Glycine, ratio versus control: 0.86^
  Heptadecanoic acid (C17:0), ratio versus control: 0.57 *
  Testosterone, ratio versus control: 0.68 *
  Threonine, ratio versus control: 1.02^
  Uric acid, ratio versus control: 0.7 *
  alpha-Tocopherol, ratio versus control: 0.33 *
Day 28
  Alanine, ratio versus control: 1.14^
  Androstenedione, ratio versus control: 0.46 *
  Cholesterol, ratio versus control: 0.52 *
  Glycine, ratio versus control: 0.72 *
  Heptadecanoic acid (C17:0), ratio versus control: 0.82 *
  Testosterone, ratio versus control: 0.26 *
  Threonine, ratio versus control: 1.04^
  Uric acid, ratio versus control: 0.5 *
  alpha-Tocopherol, ratio versus control: 0.64 *
